{"source": "paper PMC6050537", "about": "“Inhibition of low-density lipoprotein receptor degradation with a cyclic peptide that disrupts the homodimerization of IDOL E3 ubiquitin ligase” (Chemical Science, 2018)", "key": {"[1]": {"target": "T1, 6× His-tagged, full-length IDOL (Homo sapiens, UniProt Q8WY64)", "T1 construct": "Full length IDOL (1–445) was cloned with a TEV cleavable N-terminal 6xHis tag; made in house; host or cells: Spodoptera frugiperda Sf21 (baculovirus, pFastbac1)", "T1 sequence (Q8WY64 1-445)": "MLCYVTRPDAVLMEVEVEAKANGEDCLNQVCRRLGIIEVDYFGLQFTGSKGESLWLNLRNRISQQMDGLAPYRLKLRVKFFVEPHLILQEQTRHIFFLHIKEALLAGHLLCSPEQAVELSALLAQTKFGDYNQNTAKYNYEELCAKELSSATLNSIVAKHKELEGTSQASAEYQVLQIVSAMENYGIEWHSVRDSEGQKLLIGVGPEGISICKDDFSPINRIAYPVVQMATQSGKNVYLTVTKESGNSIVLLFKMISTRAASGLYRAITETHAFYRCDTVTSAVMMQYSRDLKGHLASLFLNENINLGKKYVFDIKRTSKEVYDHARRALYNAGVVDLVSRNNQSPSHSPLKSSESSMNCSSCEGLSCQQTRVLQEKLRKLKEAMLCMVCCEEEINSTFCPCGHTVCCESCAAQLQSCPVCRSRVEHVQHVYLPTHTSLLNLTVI", "assay": "Surface plasmon resonance (SPR) affinity for IDOL", "assay_type": "binding", "details": "SPR, immobilized full-length His-IDOL; saturation at highest concentrations not observed; read-out: Kd", "from_the_text": "We initially assessed the affinity of the 6 selected cyclic peptides for IDOL by surface plasmon resonance (SPR). Although saturation at the highest concentrations was not observed, due to hydrophobic effects, Kd values could be determined for five peptides (Table 1). […] The hit rate for our IDOL screen is in line with that for previous SICLOPPS screens.[21],[25] It should be noted that although cyclo-CTIFLL and cyclo-CTLILF contain the same amino acids, changing the order in which these are arranged results in activity loss.\nAll measurements were performed on a Biacore S200 (GE healthcare) using running buffer 10 mM HEPES, 300 mM NaCl, 1 mM TCEP, 0.05% Tween 20 and 4% DMSO at pH 8.0. In brief, 6× His-tagged, full-length IDOL was immobilized on a NTA-chip (Xantec), to a final level of ∼6000 RU. The chip was pre-loaded with Ni^2+ to facilitate efficient capture of His-tagged protein onto the chip. The activity of the immobilized protein was confirmed using a reference compound.\nSupplementary Figure 2. […] Saturation of binding was not observed due to the hydrophobic nature of the peptides\n(1 picture or pasted object on this page, not shown here)"}, "[2]": {"tested_on": "T2, RING domain of IDOL", "T2 construct": "IDOL RING domain (G356-I445) was expressed as TEV cleavable N-terminal HN6-Lysine-Tag; HN6-Lysine-Tag (TEV-cleavable) (N); made in house; host or cells: E. coli (pET vector)", "assay": "1H 15N HSQC NMR binding to RING domain", "from_the_text": "(§1) The lead candidates, cyclo-CTIFLL and cyclo-CFFLYT, were next analyzed for binding to the RING domain of IDOL by ^1H ^15N HSQC NMR. We also assessed the binding of each peptide to the FERM domain of IDOL as a negative control. […] It should be noted that the 3 residues affected by cyclo-CFFLYT (named RINGPep1) form part of the PPI interface in the crystal structure of the homodimerized RING domains of IDOL (Fig. 1c and ESI Fig. 6 ^†).[15] Furthermore, mutation of V431R coupled with a L433R mutation is known to result in a dimer deficient IDOL.[15]\n(§2) ^15N-labeled RING and FERM domains were prepared for NMR experiments by buffer exchange using Amicon Ultra-4 Centrifugal Filter Units with 3 kDa molecular weight cut-off membranes. Buffer conditions for the NMR studies were 50 mM TRIS-d11 pH 7.5, 200 mM NaCl, 3 mM TCEP, 10% (v/v) D2O for the RING domain and 25 mM TRIS-d11, 25 mM NaPi, pH 7.5, 300 mM NaCl, 3 mM TCEP, 10% (v/v) D2O for the FERM domain. The protein concentrations were 80 μM and 70 μM, for the RING and FERM domain respectively. Two-dimensional NMR SOFAST-HMQC titration experiments were carried out on a Bruker 600 MHz spectrometer equipped with a cryoprobe. […]"}, "[3]": {"tested_on": "T3, FERM domain of IDOL", "T3 construct": "made in house; host or cells: E. coli BL21", "assay": "1H 15N HSQC NMR binding to FERM domain (negative control)", "from_the_text": "as §1, §2"}, "[4]": {"tested_on": "IDOL homodimerization (434-IDOL fusion) in IDOL RTHS", "assay": "IDOL bacterial reverse two-hybrid system (RTHS) drop-spotting", "assay_type": "cell-based, E. coli", "details": "SICLOPPS-encoded peptide, IPTG 25 μM plus arabinose", "from_the_text": "We used a previously reported genetically encoded high-throughput screening platform that combines a bacterial reverse two-hybrid system (RTHS)[21],[23]–[25] with a plasmid-encoded library of 3.2 million cyclic hexapeptides using split intein circular ligation of peptides and proteins (SICLOPPS).[26],[27] We began by constructing a bacterial RTHS for IDOL homodimerization. IDOL is expressed as an N-terminal fusion with the 434 bacteriophage repressor, with the 38 amino acid disordered region of the 434 repressor acting as linker. IDOL homodimerization is expected to bring together two 434 proteins to form a functional repressor that binds to the operator sites engineered onto the E. coli chromosome, and prevent the expression of 3 genes downstream that are required for growth and survival on selective media (Fig. 1a). We verified the formation of a functional repressor and suppression of growth on selective media upon IDOL homodimerization by drop-spotting (Fig. 1b), and by ONPG assay (ESI Fig. 1 ^†) as previously detailed.[21] A SICLOPPS CXXXXX library (where X = any canonical amino acid) was prepared as previously detailed[28] and transformed into the IDOL RTHS prior to plating on selective media. After incubation of the selection plates for 48 h, 480 surviving colonies were picked and individually assessed for arabinose-dependent survival on selective media by drop-spotting. […]"}}, "note": "Residues, ends and D or L forms follow the SMILES beside them.", "data": [{"smiles": "CC(C)C[C@@H]1NC(=O)[C@H](Cc2ccccc2)NC(=O)[C@H](Cc2ccccc2)NC(=O)[C@H](CS)NC(=O)[C@H]([C@@H](C)O)NC(=O)[C@H](Cc2ccc(O)cc2)NC1=O", "note": "[RINGPep1, cyclo-CFFLYT] (HELM PEPTIDE1{C.F.F.L.Y.T}$PEPTIDE1,PEPTIDE1,1:R1-6:R2$$$V2.0)", "values": [{"measurement": "Kd", "setting": "[1]", "value": "38.5 ± 34.8", "unit": "µM"}, {"measurement": "chemical shift changes, RING domain of IDOL", "setting": "[2]", "value": "modest chemical shift changes for 3 amino acids"}, {"measurement": "chemical shift changes, FERM domain of IDOL", "setting": "[3]", "value": "No changes"}, {"measurement": "growth of IDOL RTHS on selective media", "setting": "[4]", "value": "restored"}]}]}
